PMC9614474 (Plant Physiology, 2022)

Target: T1, ChElp2 (Colletotrichum higginsianum, UniProt H1UVH3)
T1 construct: gene ELP2
Conditions: 25 °C

T1 sequence (H1UVH3 19-176): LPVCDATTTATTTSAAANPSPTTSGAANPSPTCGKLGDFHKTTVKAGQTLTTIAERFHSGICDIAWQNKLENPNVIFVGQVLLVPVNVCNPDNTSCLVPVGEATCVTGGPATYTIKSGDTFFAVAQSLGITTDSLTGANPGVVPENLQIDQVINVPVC

## CC(=O)N[C@H]1[C@H](O[C@H]2[C@H](O)[C@@H](NC(C)=O)[C@H](O[C@H]3[C@H](O)[C@@H](NC(C)=O)C(O)O[C@@H]3CO)O[C@@H]2CO)O[C@H](CO)[C@@H](O[C@@H]2O[C@H](CO)[C@@H](O[C@@H]3O[C@H](CO)[C@@H](O[C@@H]4O[C@H](CO)[C@@H](O)[C@H](O)[C@H]4NC(C)=O)[C@H](O)[C@H]3NC(C)=O)[C@H](O)[C@H]2NC(C)=O)[C@@H]1O (stereo partly shown) [Chi6, hexaacetylchitohexaose]
  Kd: 5.03 ± 0.241 µM
